Measurements: ChEMBL document CHEMBL1145887, “Large dimeric ligands with favorable pharmacokinetic properties and peroxisome proliferator-activated receptor agonist activity in vitro and in vivo” (J Med Chem, 2003)

Key:
[1] = Clearance in rat; format: ADME, organism-based; conditions: in vivo
[2] = target: T1, Peroxisome proliferator-activated receptor delta (Homo sapiens, UniProt Q03181); test: In vitro transactivation of human Peroxisome proliferator activated receptor delta (hPPARdelta)
T1 sequence (Q03181 whole entry): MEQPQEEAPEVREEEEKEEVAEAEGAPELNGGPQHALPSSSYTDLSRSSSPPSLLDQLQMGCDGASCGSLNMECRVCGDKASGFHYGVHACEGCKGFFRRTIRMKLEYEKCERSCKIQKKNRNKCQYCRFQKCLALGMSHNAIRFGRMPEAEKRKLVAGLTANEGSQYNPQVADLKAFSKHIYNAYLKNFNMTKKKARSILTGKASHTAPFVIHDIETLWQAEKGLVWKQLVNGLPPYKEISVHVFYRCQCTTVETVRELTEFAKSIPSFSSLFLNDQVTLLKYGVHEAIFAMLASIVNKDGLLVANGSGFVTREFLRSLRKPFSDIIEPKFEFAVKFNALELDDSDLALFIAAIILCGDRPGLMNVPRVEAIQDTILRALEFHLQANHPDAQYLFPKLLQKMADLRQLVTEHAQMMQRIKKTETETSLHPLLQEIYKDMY

Mus musculus [3] = species: Mus musculus; test: Area under blood glucose time curve after oral glucose test in mice; format: functional
[4] = target: T2, Peroxisome proliferator-activated receptor gamma (Homo sapiens, UniProt P37231)
T2 sequence (P37231 whole entry): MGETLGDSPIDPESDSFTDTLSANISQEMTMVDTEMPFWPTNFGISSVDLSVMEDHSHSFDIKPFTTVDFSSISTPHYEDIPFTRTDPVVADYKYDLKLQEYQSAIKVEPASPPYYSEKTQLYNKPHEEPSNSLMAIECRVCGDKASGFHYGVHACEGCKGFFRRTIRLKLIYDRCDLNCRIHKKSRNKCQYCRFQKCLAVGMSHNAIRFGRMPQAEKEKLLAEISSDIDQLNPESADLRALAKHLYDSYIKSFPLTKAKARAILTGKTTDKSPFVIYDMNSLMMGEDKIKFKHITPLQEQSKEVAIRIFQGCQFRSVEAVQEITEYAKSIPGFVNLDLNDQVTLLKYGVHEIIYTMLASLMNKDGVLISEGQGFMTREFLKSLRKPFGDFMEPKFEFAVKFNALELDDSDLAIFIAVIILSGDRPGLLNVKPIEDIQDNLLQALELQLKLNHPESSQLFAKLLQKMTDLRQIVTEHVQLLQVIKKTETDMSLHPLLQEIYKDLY
Description: In vitro transactivation of human Peroxisome proliferator activated receptor gamma

Mus musculus [5] = test: In vivo nonfasting blood glucose in db/db mice after oral treatment; format: functional
[6] = Area under the plasma concentration-time curve in rat after peroral administration; format: ADME, organism-based; conditions: po
[7] = target: T3, Peroxisome proliferator-activated receptor alpha (Homo sapiens, UniProt Q07869); test: (§1) In vitro transactivation of human Peroxisome proliferator activated receptor alpha (hPPARalpha)
T3 sequence (Q07869 whole entry): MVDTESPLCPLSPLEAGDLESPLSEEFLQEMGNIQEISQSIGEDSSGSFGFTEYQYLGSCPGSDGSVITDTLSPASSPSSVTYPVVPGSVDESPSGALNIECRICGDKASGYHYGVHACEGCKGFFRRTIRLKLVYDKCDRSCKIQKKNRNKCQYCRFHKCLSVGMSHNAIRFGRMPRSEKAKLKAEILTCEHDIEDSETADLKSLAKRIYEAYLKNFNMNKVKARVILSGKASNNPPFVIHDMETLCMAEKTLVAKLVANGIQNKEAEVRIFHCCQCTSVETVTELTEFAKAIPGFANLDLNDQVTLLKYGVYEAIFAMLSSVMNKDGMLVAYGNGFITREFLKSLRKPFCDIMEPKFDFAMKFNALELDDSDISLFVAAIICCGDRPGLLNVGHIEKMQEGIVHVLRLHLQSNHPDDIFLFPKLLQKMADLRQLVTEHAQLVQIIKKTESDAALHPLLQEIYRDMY

[8] = target: T4, Peroxisome proliferator-activated receptor alpha (Homo sapiens) (UniProt Q07869); test: as §1; parameters: concentration or dose not given beside the values
T4 sequence (whole entry): T3 sequence (Q07869 whole entry)

Mus musculus [9] = test: In vivo insulin effect in db/db mice after oral treatment; format: functional
[10] = Oral bioavailability in rat; format: ADME, organism-based; conditions: in vivo
[11] = Partition coefficient (logP); format: physicochemical; conditions: octanol/water
[12] = target: T5, Peroxisome proliferator-activated receptor alpha (Rattus norvegicus) (UniProt P37230); test: (§2) In vitro transactivation of rat Peroxisome proliferator activated receptor alpha; parameters: concentration or dose not given beside the values
T5 sequence (whole entry): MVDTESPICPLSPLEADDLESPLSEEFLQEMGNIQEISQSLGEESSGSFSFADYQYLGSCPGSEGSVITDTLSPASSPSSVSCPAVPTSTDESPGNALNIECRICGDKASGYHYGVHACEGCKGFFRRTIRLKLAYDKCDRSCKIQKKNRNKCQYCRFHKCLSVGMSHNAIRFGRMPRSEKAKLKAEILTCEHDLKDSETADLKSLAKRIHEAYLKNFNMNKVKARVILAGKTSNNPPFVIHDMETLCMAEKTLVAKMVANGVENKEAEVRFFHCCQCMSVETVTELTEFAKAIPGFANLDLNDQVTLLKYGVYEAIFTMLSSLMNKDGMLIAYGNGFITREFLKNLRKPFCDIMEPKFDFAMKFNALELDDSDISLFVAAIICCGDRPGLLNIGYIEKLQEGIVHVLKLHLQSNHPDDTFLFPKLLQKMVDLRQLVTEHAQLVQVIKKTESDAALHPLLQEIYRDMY

[13] = target: T6, Peroxisome proliferator-activated receptor alpha (Rattus norvegicus, UniProt P37230); test: as §2
T6 sequence (P37230 whole entry): T5 sequence (whole entry)

[14] = Maximum plasma concentration in rat after peroral administration; format: ADME, organism-based; parameters: route oral; conditions: po
[15] = Volume of distribution during steady state in rat; conditions: in vivo
Mus musculus [16] = test: In vivo nonfasting triglyceride in db/db mice after oral treatment; format: functional
[17] = Oral half-life in rat after peroral administration; format: ADME, organism-based; conditions: in vivo

Structure (SMILES)	clearance [1] [mL/min/kg]	EC50 [2] [nM]	Max reduction (Mus musculus [3]) [%]	ED50 (Mus musculus [3]; Mus musculus, Blood, po) [mg/kg]	EC50 [4] [nM]	ED50 (Mus musculus [5]) [mg/kg]	Max reduction (Mus musculus [5]) [%]	AUC [6] [ng·h/mL]	EC50 [7] [nM]	Fold activation [8] [%]	ED50 (Mus musculus [9]) [mg/kg]	Max reduction (Mus musculus [9]) [%]	bioavailability [10] [%]	logP [11]	Fold activation [12] [%]	EC50 [13] [nM]	Cmax [14] [ng/mL]	ED50 (Mus musculus [16]) [mg/kg]	Max reduction (Mus musculus [16]) [%]	half-life [17] [h]	other results
CCO[C@@H](Cc1ccc(OC/C=C(\C)c2ccc(-c3ccc(/C(C)=C/COc4ccc(C[C@H](OCC)C(=O)O)cc4)cc3)cc2)cc1)C(=O)O	0.04	2080	53	0.4	320	0.2	40	9790	6690	247	0.2	91	58	4.89	203	19900	23200	0.3	60	> 6.67	Vd [15]: 0.08 L/kg
CCO[C@@H](Cc1ccc(OC/C=C/C#Cc2cccc(C#C/C=C/COc3ccc(C[C@H](OCC)C(=O)O)cc3)c2)cc1)C(=O)O	0.23	10500	60	0.5	1650	0.9	54	84900	300	193	0.6	86	63	4.81	109	4600	7210	0.1	46	6.7	Vd [15]: 0.16 L/kg
Cc1cccc(Nc2cc(Cl)nc(SCC(=O)O)n2)c1C [PIRINIXIC ACID]	–	–	13	–	–	2.2	36	–	–	–	15	45	–	–	–	2100	–	3	32	–	ED50 (Mus musculus [3]): 4.7 mg/kg
CCc1ccc(CCOc2ccc(CC3SC(=O)NC3=O)cc2)nc1 (configuration not stated) [PIOGLITAZONE]	–	–	39	12	–	2.6	53	–	–	–	15	54	–	–	–	–	–	27	21	–	–
CCO[C@@H](Cc1ccc(OC/C=C/C#Cc2ccc(C#C/C=C/COc3ccc(C[C@H](OCC)C(=O)O)cc3)cc2)cc1)C(=O)O	0.1	2170	52	0.9	110	0.4	55	111000	710	173	0.4	90	100	4.81	210	6300	27800	0.2	56	> 6	Vd [15]: 0.04 L/kg
CCCCC[C@H](O)/C=C/[C@@H]1[C@H]2C/C(=C\CCCC(=O)O)C[C@H]2C[C@H]1O [CARBACYCLIN]	–	1880	–	–	7910	–	–	–	960	79	–	–	–	–	15	–	–	–	–	–	–
CCO[C@@H](Cc1ccc(OC/C=C(\C)c2ccc(-c3ccccc3)cc2)cc1)C(=O)O	0.49	9550	50	0.3	2030	0.2	53	116000	490	158	0.2	95	100	4.5	166	11100	9250	0.3	65	3.55	Vd [15]: 0.16 L/kg
CC(C)(Oc1ccc(C(=O)c2ccc(Cl)cc2)cc1)C(=O)O [FENOFIBRIC ACID]	–	–	0	> 300	–	> 300	10	–	32100	265	191	32	–	4.27	331	131000	–	> 300	20	–	–
CN(CCOc1ccc(CC2SC(=O)NC2=O)cc1)c1ccccn1 (configuration not stated) [ROSIGLITAZONE]	2.1	–	16	0.8	–	0.9	35	14600	–	–	0.1	43	83	1.91	–	–	–	0.1	58	3.03	–
